Measurements as given in patent publication US8722923B2, “Conjugates for treating neurodegenerative diseases and disorders” (Ramot at Tel-Aviv University Ltd., priority 2008, dated 2014).

Legend:
[1] = system: MPTP acute model mice; assay: Experiment 1: open field test, MPTP acute model (AN-490); format: in vivo, C57/BL/6J mice
Experimental: The MPTP neurotoxin was administered on day 0, with 4 IP injections (each injection contained 20 mg/kg, 5 ml/kg) in saline. The various treatments or saline were administered on days 0, 1, 2, 3, 6, 7, 13 and 16. Each group of mice (n=6) was subjected, on days 3, 6, 8 and 16, to the open field test, and the following parameters were scored: the distance moved (FIGS. 2A and 2B), velocity (FIGS. 2C and 2D), time spent immobile (FIGS. 2E and 2F) and time spent in a high level of mobility (FIGS. 2G and 2H; strong mobility) during a period of 20 minutes. FIGS. 2A, 2C, 2E and 2G present the data obtained for the control mice, mice treated with L-DOPA and mice treated with AN-490. FIGS. 2B, 2D, 2F and 2H present the data obtained for control mice or mice treated with MPTP, MPTP with L-DOPA and MPTP with AN-490.
(§1) Acute model: On day 1, C57/BL mice received 4× […] injections of 20 mg/kg MPTP-HCl (Sigma), dissolved in saline solution, at 2 hours intervals.
The open field test measures behavioral responses, locomotor activity, hyperactivity, and exploratory behaviors. Open field test is also used as a measure of anxiety. Mice tend to avoid brightly illuminated, novel, open spaces, so the open field environment acts as an anxiogenic stimulus and allows for measurement of anxiety-induced locomotor activity and exploratory behaviors. The apparatus for the open field test is a square (0.5×0.5 meter) made of white melamine. All activities were recorded by a video camera mounted above the open field and scored in real-time by a motion-recognition software package (Noldus, Holland) that detects and analyzes the movements of the animals. The video image of the open field arena was partitioned into equal-size squares zone. Total distance, average speed, rearing/elongation behavior, and time spent in various parts of the field (e.g. the border areas vs. mid-area) were measured. Testing was carried out in a temperature, noise and light controlled room.

[2] = system: MPTP sub-acute model mice; assay: Experiment 2: observed vitality signs (level of motion, fur appearance), MPTP sub-acute model; format: in vivo, C57/BL/6J mice; conditions: MPTP sub-acute model, per os treatment; on Fur, observer 1: key: Split fur +; Shiny fur +++; on Fur, observer 2: key: Split fur +; Shiny fur +++; on Fur, observer 3: key: Split fur +; Shiny fur +++; on Fur, observer 4: key: Split fur +; Shiny fur +++; on Vitality, observer 3: key: slow motions +; normal motion +++; on Vitality, observer 4: key: slow motions +; normal motion +++
From the text: FIG. […] 6 hereinabove. Six independent observers estimated the level of mice vitality by the level of motion of the mice (light purple, marked vitality) and fur appearance (dark purple). The results are an average of the observers' reports.

[3] = 0.16 ionic strength and 25° C.; cited from earlier work
[4] = system: MPTP-Induced Parkinson's Disease Model in Mice; assay: Example 2: MPTP acute toxicity model, tyrosine hydroxylase immunoreactive cells in the SNpc; format: in vivo, mice strain C57/bl; conditions: day 7, MPTP 4 x 20 mg/kg IP day 0, S.C once daily days 0-7, 40 mg/kg L-DOPA or equimolar
Experimental: Mice were administered 4 injections IP of MPTP (each injection contained 20 mg/kg, 5 ml/kg) or saline alone (control) at 2 hours intervals on day 0. Mice were then administered subcutaneously test solutions (TI) (either saline, L-DOPA or BL-1023) once daily throughout the 8 successive treatment days (days 0-7). On day 7, the mice were sacrificed and their brains were removed for immunohistochemistry analysis of the number of tyrosine hyroxylase immunostained cells at the level of the Substantia Nigra (SNpc).
Young adult (7-8 weeks old) male mice strain C57/bl were acclimated for one week prior to MPTP initiation. During acclimation and throughout the entire study duration, animals were housed within a limited access rodent facility and kept in groups of maximum 5 mice in polypropylene cages (23×17×14 cm), fitted with solid bottoms and filled with wood shavings as bedding material. Animals were provided ad libitum a commercial rodent diet and free access to drinking water, supplied to each cage via polyethylene bottles with stainless steel sipper tubes. […]
Immunohistochemistry staining was performed using Rabbit anti tyrosin hydroxylase (1:100). […] Quantitative analysis was effected by counting of immunoreactive cells at the widest dimension of the SNpc lateral to the roots of the third cranial nerve separating medial and lateral SNpc at the level of interpreduncular nucleus.

[5] = system: MPTP acute model mice; assay: Experiment 3: RotaRod test, MPTP acute model (BL-1023*); format: in vivo, C57/BL/6J mice; conditions: day 12, after initiation of treatment, per os
Experimental: Mice were administered the following treatments: saline (Control), MPTP+saline (MPTP), MPTP+L-DOPA 30 mg/kg (MPTP+Dopa), MPTP+L-DOPA 30 mg/kg+GABA 18.4 mg/kg (MPTP+G+D) MPTP+BL1023* 48.4 mg/kg (MPTP+1023 30) and MPTP+BL-1023* 24.2 mg/kg (MPTP+BL1023 15). The MPTP neurotoxin was administered on day 0, with 4 IP injections (each injection contained 20 mg/kg, 5 ml/kg) in saline. The various treatments or saline were administered on day 7, 9, 11 and 13 (total of 4 treatments). Each group of mice (n=10) was subjected to the RotaRod test, on day 6 (before initiation of treatment, FIG. 9A) and day 12 (after initiation of treatment, FIG. 9B) and the observed average duration on Rod, tested three times, are presented.
as §1
RotoRod Test: The test measures and records motor coordination of rats and mice using the natural fear of falling motivation. RotoRod (San Diego Industries, San Diego, Calif., USA) was set on 16 rpm speed and accelerated to maximum speed of 25 rpm. The time until the mouse fall was measured up to maximum 4 minutes. The measurements were performed three times for each mouse and the average was calculated. […] When the animal falls from the rotating rod, the photo beams were broken and the Rota-Rod recorded the animal's latency to fall. […]

With `N[C@@H](Cc1ccc(O)c(O)c1)C(=O)O` [L-DOPA, 3,4-dihydroxy-L-phenylalanine] as the compound, how does the “motility / motor activity in open field” value ([1]; MPTP treated mice, L-DOPA 25 mg/kg or AN-490 67.5 mg/kg by oral gavage, days 3, 6, 8, 16) read?
The value was “lower the motility”.

What about the “motility in open field (distance moved, velocity, strong mobility, immobility)” value ([1]; mice not treated with MPTP, L-DOPA 25 mg/kg per os, vs naïve mice or equimolar AN-490) of the same compound?
The value was “tendency toward increase in motility”.

And the “Fur, observer 1” value [2]?
Its value is “+++”.

And the “Fur, observer 2” value [2]?
Its value is “+++”.

And the “Fur, observer 3” value [2]?
Its value is “+++”.

What about the “Fur, observer 4” value [2] of the same compound?
The value was “+++”.

What about the “Vitality, observer 3” value [2] of the same compound?
The value was “+++”.

And the “Vitality, observer 4” value [2]?
The value was “+++”.

And the pKNH3 [3]?
The pKNH3 was 9.42.

What about the pKOH [3] of the same compound?
Its pKOH is 8.97.

And the “Number of TH Cells” value [4]?
The value was 39.

And the “latency in the rotarod test shortened by MPTP” value [5]?
The value was “not attenuated”.
